Data on 23 molecules can be found in patent publication US7504420B2, “Compounds which inhibit beta-secretase activity and methods of use” (CoMentis, Inc., priority 2005, dated 2009).

The structures appear in SMILES notation. pIC50, pKi: −log10 of the molar value. Structures can show the parent of a compound that is named as a salt. Where two headings read alike, the source gives them in different places.

For assay [1], the system named is Aβ production in Chinese hamster ovary cells that over-express human APP695 with the London and Swedish mutations. The experiment in a line: Cellular Aβ IC50 determination (Aβ40 sandwich ELISA). Conditions: 24 h. Background: In an ELISA, binding on a coated surface is turned into a signal by an enzyme label.
A further assay concerns the target memapsin 2 (Homo sapiens, UniProt P56817). Briefly: Inhibition of memapsin 2 catalytic activity (Ki). Type of assay: biochemical. Conditions: memapsin 2, pH 4, 37° C. As to the method: Potency of compounds were determined by measurement of their inhibition of memapsin 2 catalytic activity toward a fluorescent substrate. […] Briefly, assays were performed at pH 4, 37° C., by pre-incubation of memapsin 2 enzyme with compound for 20 minutes. Activity measure was initiated by addition of a fluorogenic substrate FS-2 (Bachem Americas, Torrance, Calif.). Fluorescent signal increase over time was measured as a rate of hydrolysis of the peptide substrate. […]

Setting [2] is: Cricetulus griseus, CHO, read-out: Cell, Aβ40, CHO cells over-expressing human APP695 (London and Swedish mutations), 24 h.
Setting [3] is: Cricetulus griseus, CHO, read-out: Cell.

Sequence of memapsin 2 (P56817 46-501): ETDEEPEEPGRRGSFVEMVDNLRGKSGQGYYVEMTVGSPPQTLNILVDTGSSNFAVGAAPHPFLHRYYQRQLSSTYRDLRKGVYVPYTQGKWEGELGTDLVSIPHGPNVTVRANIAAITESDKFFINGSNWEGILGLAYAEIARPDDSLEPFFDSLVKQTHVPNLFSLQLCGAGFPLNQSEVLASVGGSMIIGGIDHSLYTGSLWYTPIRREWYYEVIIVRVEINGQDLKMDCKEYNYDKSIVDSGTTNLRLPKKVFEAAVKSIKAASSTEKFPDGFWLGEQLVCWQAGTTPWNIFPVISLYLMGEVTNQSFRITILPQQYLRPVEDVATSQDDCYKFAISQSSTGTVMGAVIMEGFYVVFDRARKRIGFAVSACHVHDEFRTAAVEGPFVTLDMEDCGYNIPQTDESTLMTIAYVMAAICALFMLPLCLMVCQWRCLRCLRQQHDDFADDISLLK

Regarding `CCOc1cccc(CNCC(O)C(Cc2ccccc2)NC(=O)c2cc(C(=O)NC(C)c3ccccc3)cc(N(C)S(C)(=O)=O)c2)c1` (centres unmarked) [N1-(4-(3-ethoxybenzylamino)-3-hydroxy-1-phenylbutan-2-yl)-5-(N-methylmethylsulfonamido)-N3-(1-phenylethyl)isophthalamide], the pIC50 in assay [1] (setting [2]) is over 6.00. In addition, the pKi on memapsin 2 (read-out: M2K) was over 6.52. In the same order, the values of `COc1cccc(CNCC(O)C(Cc2ccccc2)NC(=O)c2cccc(C(=O)N(C)Cc3csc(C)n3)c2)c1` (centres unmarked) [N1-(3-hydroxy-4-(3-methoxybenzylamino)-1-phenylbutan-2-yl)-N3-methyl-N3-((2-methylthiazol-4-yl)methyl)isophthalamide] are over 6.00 and over 6.52. For the molecule `COc1cccc(CNCC(O)C(Cc2ccccc2)NC(=O)c2cc(C(=O)N(C)Cc3nc(C)cs3)cc([N+](=O)[O-])c2)c1` (centres unmarked) [N1-(3-hydroxy-4-(3-methoxybenzylamino)-1-phenylbutan-2-yl)-N3-methyl-N3-((4-methylthiazol-2-yl)methyl)-5-nitroisophthalamide], the pIC50 in assay [1] (setting [2]) was over 6.00. For the same molecule, the pKi at memapsin 2 (read-out: M2K) is over 6.52. For `Cc1csc(CN(C)C(=O)c2cccc(C(=O)NC(Cc3ccccc3)C(O)CNCc3cncc(OC(C)C)c3)c2)n1` (centres unmarked) [N1-(3-hydroxy-4-((5-isopropoxypyridin-3-yl)methylamino)-1-phenylbutan-2-yl)-N3-methyl-N3-((4-methylthiazol-2-yl)methyl)isophthalamide] the same measures were over 6.00 and over 6.52. For `Cc1cc(C(C)NCC(O)C(Cc2ccccc2)NC(=O)c2cc(C(=O)NC(C)c3ccccc3)cc(N(C)S(C)(=O)=O)c2)on1` (centres unmarked) [N1-(3-hydroxy-4-(1-(3-methylisoxazol-5-yl)ethylamino)-1-phenylbutan-2-yl)-5-(N-methylmethylsulfonamido)-N3-(1-phenylethyl)isophthalamide], in assay [1] (setting [2]), the pIC50 is over 6.00. The pKi on memapsin 2 (read-out: M2K) was over 6.52. For `COc1cccc(CNCC(O)C(Cc2ccccc2)NC(=O)c2cc(C(=O)NC(C)c3nc(C)co3)cc(N(C)S(C)(=O)=O)c2)c1` (centres unmarked) [N1-(3-hydroxy-4-(3-methoxybenzylamino)-1-phenylbutan-2-yl)-5-(N-methylmethylsulfonamido)-N3-(1-(4-methyloxazol-2-yl)ethyl)isophthalamide] the same measures were over 6.00 and over 6.52. Turning to `C#Cc1cccc(CNCC(O)C(Cc2ccccc2)NC(=O)c2cccc(C(=O)N(C)Cc3nc(C)cs3)c2)c1` (centres unmarked) [N1-(4-(3-ethynylbenzylamino)-3-hydroxy-1-phenylbutan-2-yl)-N3-methyl-N3-((4-methylthiazol-2-yl)methyl)isophthalamide], the pIC50 in assay [1] (setting [2]) was over 6.00. The pKi at memapsin 2 (read-out: M2K) was over 6.52. `COc1ccc(CCNCC(O)C(Cc2ccccc2)NC(=O)c2cccc(C(=O)N(C)Cc3nc(C)cs3)c2)cc1` (centres unmarked) [N1-(3-hydroxy-4-(4-methoxyphenethylamino)-1-phenylbutan-2-yl)-N3-methyl-N3-((4-methylthiazol-2-yl)methyl)isophthalamide]: the pIC50 in assay [1] (setting [2]) was 5.30 to 6.00. Further, the pKi at memapsin 2 (read-out: M2K) is under 6.30.

As to `COc1ccc(CCNCC(O)C(Cc2ccccc2)NC(=O)c2cc(C(=O)NC(C)c3ccccc3)cc(N(C)S(C)(=O)=O)c2)cc1OC` (centres unmarked) [N1-(4-(3,4-dimethoxyphenethylamino)-3-hydroxy-1-phenylbutan-2-yl)-5-(N-methylmethylsulfonamido)-N3-(1-phenylethyl)isophthalamide], the pIC50 in assay [1] (setting [2]) is over 6.00. Moreover, on memapsin 2 (read-out: M2K), the pKi is over 6.52. With `Cc1csc(CN(C)C(=O)c2cccc(C(=O)NC(Cc3ccccc3)C(O)CNCc3cccc(CC(C)C)c3)c2)n1` (centres unmarked) [N1-(3-hydroxy-4-(3-isobutylbenzylamino)-1-phenylbutan-2-yl)-N3-methyl-N3-((4-methylthiazol-2-yl)methyl)isophthalamide], in assay [1] (setting [2]), the pIC50 is over 6.00. Further, at memapsin 2 (read-out: M2K), the pKi was over 6.52.

As to `CC(NC(=O)c1cc(C(=O)NC(Cc2ccccc2)C(O)CNC(CO)c2ccccc2)cc(N(C)S(C)(=O)=O)c1)c1ccccc1` (centres unmarked) [N1-(3-hydroxy-4-(2-hydroxy-1-phenylethylamino)-1-phenylbutan-2-yl)-5-(N-methylmethylsulfonamido)-N3-(1-phenylethyl)isophthalamide], in assay [1] (setting [2]), the pIC50 is over 6.00. The pKi at memapsin 2 (read-out: M2K) was over 6.52. Take `CC(NC(=O)c1cc(C(=O)NC(Cc2ccccc2)C(O)CNCc2nccn2COCC[Si](C)(C)C)cc(N(C)S(C)(=O)=O)c1)c1ccccc1` (centres unmarked) [N1-(3-hydroxy-1-phenyl-4-((1-((2-(trimethylsilyl)ethoxy)methyl)-1H-imidazol-2-yl)methylamino)butan-2-yl)-5-(N-methylmethylsulfonamido)-N3-(1-phenylethyl)isophthalamide]: the pIC50 in assay [1] (setting [3]) was under 5.30. Moreover, the pKi on memapsin 2 (read-out: M2K) is 6.30 to 6.52. Regarding `COc1cccc(CNCC(O)C(Cc2ccccc2)NC(=O)c2cc(C(=O)NCc3nc(CO)co3)cc(N(C)S(C)(=O)=O)c2)c1` (centres unmarked) [N1-(3-hydroxy-4-(3-methoxybenzylamino)-1-phenylbutan-2-yl)-N3-((4-(hydroxymethyl)oxazol-2-yl)methyl)-5-(N-methylmethylsulfonamido)isophthalamide], in assay [1] (setting [2]), the pIC50 was under 5.30. Moreover, at memapsin 2 (read-out: M2K), the pKi is 6.30 to 6.52.

In the case of `COc1cncc(CNCC(O)C(Cc2ccccc2)NC(=O)c2cccc(C(=O)N(C)Cc3nc(C)cs3)c2)c1` (centres unmarked) [N1-(3-hydroxy-4-((5-methoxypyridin-3-yl)methylamino)-1-phenylbutan-2-yl)-N3-methyl-N3-((4-methylthiazol-2-yl)methyl)isophthalamide], the pIC50 in assay [1] (setting [2]) is over 6.00. The pKi at memapsin 2 (read-out: M2K) was over 6.52.

Consider `COc1cccc(CNCC(O)C(Cc2ccccc2)NC(=O)c2cccc(C(=O)N(C)Cc3nc(C)co3)c2)c1` (centres unmarked) [N1-(3-hydroxy-4-(3-methoxybenzylamino)-1-phenylbutan-2-yl)-N3-methyl-N3-((4-methyloxazol-2-yl)methyl)isophthalamide], for which the pIC50 in assay [1] (setting [3]) is over 6.00. At memapsin 2 (M2K), this molecule showed a pKi of over 6.52.

Turning to `CC(NC(=O)c1cc(C(=O)NC(Cc2ccccc2)C(O)CNCc2cccc(OC(F)(F)F)c2)cc(N(C)S(C)(=O)=O)c1)c1ccccc1` (centres unmarked) [N1-(3-hydroxy-1-phenyl-4-(3-(trifluoromethoxy)benzylamino)butan-2-yl)-5-(N-methylmethylsulfonamido)-N3-(1-phenylethyl)isophthalamide], the pIC50 in assay [1] (setting [2]) is over 6.00. Also, on memapsin 2 (read-out: M2K), the pKi was over 6.52. In the same order, the values of `COc1cc(CCCNCC(O)C(Cc2ccccc2)NC(=O)c2cc(C(=O)NC(C)c3ccccc3)cc(N(C)S(C)(=O)=O)c2)ccc1C` (centres unmarked) [N1-(3-hydroxy-4-(3-(3-methoxy-4-methylphenyl)propylamino)-1-phenylbutan-2-yl)-5-(N-methylmethylsulfonamido)-N3-(1-phenylethyl)isophthalamide] are 5.30 to 6.00 and over 6.52.

As to `CC(NC(=O)c1cc(C(=O)NC(Cc2ccccc2)C(O)CNCC2CCCN2C)cc(N(C)S(C)(=O)=O)c1)c1ccccc1` (centres unmarked) [N1-(3-hydroxy-4-((1-methylpyrrolidin-2-yl)methylamino)-1-phenylbutan-2-yl)-5-(N-methylmethylsulfonamido)-N3-(1-phenylethyl)isophthalamide], the pIC50 in assay [1] (setting [2]) was under 5.30. At memapsin 2 (read-out: M2K), the pKi is under 6.30. On to `CC(C)Cc1cncc(CNCC(O)C(Cc2ccccc2)NC(=O)c2cc(C(=O)NC(C)c3ccccc3)cc(N(C)S(C)(=O)=O)c2)c1` (centres unmarked) [N1-(3-hydroxy-4-((5-isobutylpyridin-3-yl)methylamino)-1-phenylbutan-2-yl)-5-(N-methylmethylsulfonamido)-N3-(1-phenylethyl)isophthalamide], for which the pIC50 in assay [1] (setting [2]) was over 6.00. The same measure, in the same setting: for `COc1cccc(CN(CC(O)C(Cc2ccccc2)NC(=O)c2cc(C(=O)NC(C)c3ccccc3)cc(N(C)S(C)(=O)=O)c2)C(=O)CCC(=O)NCc2cccnc2)c1` (centres unmarked) [N1-(3-hydroxy-4-(N-(3-methoxybenzyl)-4-oxo-4-(pyridin-3-ylmethylamino)butanamido)-1-phenylbutan-2-yl)-5-(N-methylmethylsulfonamido)-N3-(1-phenylethyl)isophthalamide] the value was under 5.30; for `COc1cccc(CN(CC(O)C(Cc2ccccc2)NC(=O)c2cc(C(=O)NC(C)c3ccccc3)cc(N(C)S(C)(=O)=O)c2)C(=O)CCC(=O)OCC(O)C2OC(=O)C(O)=C2O)c1` (centres unmarked) [2-(3,4-dihydroxy-5-oxo-2,5-dihydrofuran-2-yl)-2-hydroxyethyl 4-((2-hydroxy-3-(3-(N-methylmethylsulfonamido)-5-(1-phenylethylcarbamoyl)benzamido)-4-phenylbutyl)(3-methoxybenzyl)amino)-4-oxobutanoate], 5.30 to 6.00. `COc1ccccc1CN1CCC(CNCC(O)C(Cc2ccccc2)NC(=O)c2cc(C(=O)NC(C)c3ccccc3)cc(N(C)S(C)(=O)=O)c2)CC1` (centres unmarked) [N1-(3-hydroxy-4-((1-(2-methoxybenzyl)piperidin-4-yl)methylamino)-1-phenylbutan-2-yl)-5-(N-methylmethylsulfonamido)-N3-(1-phenylethyl)isophthalamide]: the pIC50 in assay [1] (read-out: Cell, Aβ40, CHO cells over-expressing human APP695 (London and Swedish mutations)) was 5.30 to 6.00. Consider `COc1ccccc1CN1CCC(CNCC(O)C(Cc2ccccc2)NC(=O)c2cc(C(=O)NC(C)c3ccccc3)cc(N(C)S(C)(=O)=O)c2)CC1` (centres unmarked) [N1-(3-hydroxy-4-((1-(2-methoxybenzyl)piperidin-4-yl)methylamino)-1-phenylbutan-2-yl)-5-(N-methylmethylsulfonamido)-N3-(1-phenylethyl)isophthalamide dihydrochloride], for which the pIC50 in assay [1] (read-out: Cell, Aβ40, CHO cells over-expressing human APP695 (London and Swedish mutations), dihydrochloride) was under 5.30.
